According to US20260242419A1, “A CYCLIC PEPTIDE FOR TRAPPING INTERLEUKIN-1 BETA” (Merck Sharp & Dohme LLC, priority 2023, published 2026):
Like-named read-outs stand apart in the source and are kept apart here. Starred links: 1 amine or outer side, 2 acyl side, 3 side chain; linkers in the order of their positions; H or OH if unused. Non-standard residues stand in square brackets, D forms with d. Residues, ends and D or L forms follow the SMILES beside them. dPro(4R-(4-pyridylmethyl)) = O=C(O)[C@H]1C[C@@H](Cc2ccncc2)CN1; X16 = Cn1cnc(-c2ccc(C[C@H]3CCN([*:1])[C@H]3C(=O)[*:2])cc2)c1; Trp(βS-Me,4-F) = C[C@@H](c1c[nH]c2cccc(F)c12)[C@H](N)C(=O)O; Bip(4'-COOH) = N[C@@H](Cc1ccc(-c2ccc(C(=O)O)cc2)cc1)C(=O)O; Ala(1-bicyclo(1.1.1)pentyl) = N[C@@H](CC12CC(C1)C2)C(=O)O; dPro(4R-Bzl(4-F)) = O=C(O)[C@H]1C[C@@H](Cc2ccc(F)cc2)CN1; dPro(3S-(4-F-Bn)) = O=C(O)[C@@H]1NCC[C@@H]1Cc1ccc(F)cc1; 1Nal(3S-Me) = C[C@@H](c1cccc2ccccc12)[C@H](N)C(=O)O; X40 = O=C([C@H](Cc1ccc(-c2cncnc2)cc1)N[*:1])[*:2]; X4 = O=C([C@H]1[C@@H](Cc2ccncc2)CCN1[*:1])[*:2]; Ala(pyrimidin-5-yl) = N[C@@H](Cc1cncnc1)C(=O)O; Phe(4-COOH) = N[C@@H](Cc1ccc(C(=O)O)cc1)C(=O)O; Bip = N[C@@H](Cc1ccc(-c2ccccc2)cc1)C(=O)O; Pro(cis-4-F) = O=C(O)[C@@H]1C[C@H](F)CN1; Ala(4-THP) = N[C@@H](CC1CCOCC1)C(=O)O; Dap(CONH2) = NC(=O)NC[C@H](N)C(=O)O; d(αMeD) = C[C@@](N)(CC(=O)O)C(=O)O; 2Pal = N[C@@H](Cc1ccccn1)C(=O)O; 4Pal = N[C@@H](Cc1ccncc1)C(=O)O; αMeK = C[C@](N)(CCCCN)C(=O)O; hSer = N[C@@H](CCO)C(=O)O; Dab = NCC[C@H](N)C(=O)O; Aib = CC(C)(N)C(=O)O

Molecular target: T1, IL-1β (Homo sapiens, UniProt P01584)
T1 construct: purchased BioLegend 579404
Test: IL-6 assay in MRC5 cells: inhibition of IL-1β induced IL-6 secretion (AlphaLISA)
Assay type: cell-based
Details: inhibition of IL-1β induced IL-6 secretion in MRC5 cells, read-out: MRC5 IC50
In short: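 Compound was pre-incubated 1 h at ambient temperature with recombinant human IL-1β at 2λ EC80 before adding human lung fibroblast MRC5 cells (3000/well) in EMEM with 0.025% BSA. After overnight culture at 37 °C, 5% CO2, secreted IL-6 in conditioned medium was measured by AlphaLISA; IC50 from 4-parameter logistic fits.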

[1] = compound pre-incubated 1 hour with recombinant human IL-1β

T1 sequence (P01584 117-269): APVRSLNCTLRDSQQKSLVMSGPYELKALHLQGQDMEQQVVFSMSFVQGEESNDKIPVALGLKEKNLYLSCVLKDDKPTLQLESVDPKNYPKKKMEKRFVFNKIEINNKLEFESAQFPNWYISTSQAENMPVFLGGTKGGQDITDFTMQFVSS

`C[C@@H](c1c[nH]c2cccc(F)c12)[C@@H]1NC(=O)[C@@H]2C[C@H](F)CN2C(=O)CNC(=O)[C@H](Cc2ccc(C(=O)O)cc2)NC(=O)[C@H](Cc2ccncc2)NC(=O)[C@H](Cc2ccc(-c3ccc(C(=O)O)cc3)cc2)NC(=O)[C@H]2C[C@@H](Cc3ccc(F)cc3)CN2C(=O)CNC(=O)[C@H](CO)NC(=O)[C@H](CCC(N)=O)NC(=O)[C@H](Cc2ccccn2)NC(=O)C(C)(C)NC(=O)[C@H](Cc2c[nH]c3ccccc23)NC(=O)[C@H](CCC(=O)O)NC(=O)C(C)(C)NC1=O` [Example 36] (cyclo([Bip(4'-COOH)][4Pal][Phe(4-COOH)]G[Pro(cis-4-F)][Trp(βS-Me,4-F)][Aib]EW[Aib][2Pal]QSG[dPro(4R-Bzl(4-F))])) was tested, and the IC50 was 0.054 nM.
Compound `C[C@@H](c1cccc2ccccc12)[C@@H]1NC(=O)[C@@H]2C[C@H](F)CN2C(=O)CNC(=O)[C@H](Cc2ccc(C(=O)O)cc2)NC(=O)[C@H](Cc2ccncc2)NC(=O)[C@H](Cc2ccc(-c3ccccc3)cc2)NC(=O)[C@H]2C[C@@H](Cc3ccncc3)CN2C(=O)CNC(=O)[C@H](CCN)NC(=O)[C@H](CCC(N)=O)NC(=O)[C@H](CC2CCOCC2)NC(=O)[C@@](C)(CC(=O)O)NC(=O)[C@H](Cc2c[nH]c3ccccc23)NC(=O)[C@H](CO)NC(=O)C(C)(C)NC1=O` [Example 290] (cyclo([Bip][4Pal][Phe(4-COOH)]G[Pro(cis-4-F)][1Nal(3S-Me)][Aib]SW[d(αMeD)][Ala(4-THP)]Q[Dab]G[dPro(4R-(4-pyridylmethyl))])) has an IC50 [1] of 0.018 nM.
`C[C@@H](c1c[nH]c2cccc(F)c12)[C@@H]1NC(=O)[C@@H]2C[C@H](F)CN2C(=O)CNC(=O)[C@H](Cc2ccc(C(=O)O)cc2)NC(=O)[C@H](CC23CC(C2)C3)NC(=O)[C@H](Cc2ccc(-c3ccc(C(=O)O)cc3)cc2)NC(=O)[C@H]2C[C@@H](Cc3ccc(F)cc3)CN2C(=O)CNC(=O)[C@H](CCN)NC(=O)[C@H](CCC(N)=O)NC(=O)[C@H](Cc2cncnc2)NC(=O)[C@](C)(CCCCN)NC(=O)[C@H](Cc2c[nH]c3ccccc23)NC(=O)[C@H](CCO)NC(=O)C(C)(C)NC1=O` [Example 147] (cyclo([Bip(4'-COOH)][Ala(1-bicyclo(1.1.1)pentyl)][Phe(4-COOH)]G[Pro(cis-4-F)][Trp(βS-Me,4-F)][Aib][hSer]W[αMeK][Ala(pyrimidin-5-yl)]Q[Dab]G[dPro(4R-Bzl(4-F))])) showed an IC50 of 0.045 nM.
For `C[C@@H](c1c[nH]c2cccc(F)c12)[C@@H]1NC(=O)[C@@H]2C[C@H](F)CN2C(=O)CNC(=O)[C@H](Cc2ccc(C(=O)O)cc2)NC(=O)[C@H](Cc2ccncc2)NC(=O)[C@H](Cc2ccc(-c3cncnc3)cc2)NC(=O)[C@H]2[C@@H](Cc3ccc(F)cc3)CCN2C(=O)CNC(=O)[C@H](CCN)NC(=O)[C@H](CCC(N)=O)NC(=O)[C@H](Cc2cncnc2)NC(=O)[C@@](C)(CC(=O)O)NC(=O)[C@H](Cc2c[nH]c3ccccc23)NC(=O)[C@H](CO)NC(=O)C(C)(C)NC1=O` [Example 282] (cyclo([X40][4Pal][Phe(4-COOH)]G[Pro(cis-4-F)][Trp(βS-Me,4-F)][Aib]SW[d(αMeD)][Ala(pyrimidin-5-yl)]Q[Dab]G[dPro(3S-(4-F-Bn))])), the IC50 [1] was 0.014 nM.
In the case of `C[C@@H](c1c[nH]c2cccc(F)c12)[C@@H]1NC(=O)[C@@H]2C[C@H](F)CN2C(=O)CNC(=O)[C@H](Cc2ccc(C(=O)O)cc2)NC(=O)[C@H](Cc2ccncc2)NC(=O)[C@H](Cc2ccc(-c3ccc(C(=O)O)cc3)cc2)NC(=O)[C@H]2[C@@H](Cc3ccncc3)CCN2C(=O)CNC(=O)[C@H](CNC(N)=O)NC(=O)[C@H](CCC(N)=O)NC(=O)[C@H](Cc2cncnc2)NC(=O)[C@@](C)(CC(=O)O)NC(=O)[C@H](Cc2c[nH]c3ccccc23)NC(=O)[C@H](CO)NC(=O)C(C)(C)NC1=O` [Example 230] (cyclo([Bip(4'-COOH)][4Pal][Phe(4-COOH)]G[Pro(cis-4-F)][Trp(βS-Me,4-F)][Aib]SW[d(αMeD)][Ala(pyrimidin-5-yl)]Q[Dap(CONH2)]G[X4])), the IC50 [1] is reported as 0.022 nM.
In the case of `C[C@@H](c1c[nH]c2cccc(F)c12)[C@@H]1NC(=O)[C@@H]2C[C@H](F)CN2C(=O)CNC(=O)[C@H](Cc2ccc(C(=O)O)cc2)NC(=O)[C@H](Cc2ccncc2)NC(=O)[C@H](Cc2ccc(-c3ccc(C(=O)O)cc3)cc2)NC(=O)[C@H]2[C@@H](Cc3ccc(-c4cn(C)cn4)cc3)CCN2C(=O)CNC(=O)[C@H](CCN)NC(=O)[C@H](CCC(N)=O)NC(=O)[C@H](Cc2cncnc2)NC(=O)C(C)(C)NC(=O)[C@H](Cc2c[nH]c3ccccc23)NC(=O)[C@H](CCC(=O)O)NC(=O)C(C)(C)NC1=O` [Example 64] (cyclo([Bip(4'-COOH)][4Pal][Phe(4-COOH)]G[Pro(cis-4-F)][Trp(βS-Me,4-F)][Aib]EW[Aib][Ala(pyrimidin-5-yl)]Q[Dab]G[X16])), the IC50 is reported as 0.014 nM.
